From patent EP1961762A1, “Inhibitors of protein phosphatase 1/GADD34, preparation and uses thereof” (Institut Gustave Roussy, priority 2007, dated 2008)
Peptide text beside a SMILES is read from it. * marks the point of attachment. Cbz = O=C(OCc1ccccc1)*; CH2F = FC*

How the values were obtained:
CT26 tumour cells = assay: Anti-tumour vaccination with dying treated CT26 tumour cells, challenge with live tumour cells; format: in vivo, BALB/c mice; settings: for immunogenic cell death: PP1/GADD34 inhibitor alone
CRT = assay: Fluorescence detection of cell surface CRT on CT26 cells; format: cell-based, murine
Method: CT26 cells were cultured at 37°C under 5% CO2 in RPMI 1640 medium supplemented with 10% FCS, penicillin, streptomycin, 1 mM pyruvate and 10 mM HEPES in the presence of doxorubicin (DX; 24 h, 25 µM), mitoxantrone (Mitox; 24h, 1 µM, Sigma), idarubicin (24h, 1 µM, Aventis, France), mitomycin C (30 µM, 48 h; Sanofi-Synthelabo, France), and/or zVAD-fmk (50 µM, 24 h; Bachem), tunicamycin (24h, 65 µM), thapsigargin (24h, 30µM), brefeldin A (24h, 50 µM, Sigma), etoposide (48h, 25µM, Tava classics), MG132 (48h, 10 µM), ALLN (48h, […]), betulinic acid (24h, 10 µM), Hoechst 33343 (24h, 0,2µM), camptothecine (24h, 15 µM), lactacystin (48h, 60 µM), BAY 11-8072 (24h, 30µM), staurosporine (24h, 1.5 µM), bafilomycin A1 (48h, 300 nM), arsenic trioxide (24h, 30µM), C2-ceramide (C2-C; 24h, 60 µM,), calyculin A (48h, 30nM), or tautomycin (48h, nM, Sigma) and/or salubrinal (48h, µM, Calbiochem).
CT26 cells (on a glass slide or in 12-well plates) were first washed with FACS buffer (1× PBS, 5% fetus bovine serum, and 0.1% sodium azide) and then incubated with rabbit anti-mouse CRT antibody (1:100, Stressgen) in FACS buffer at 4 °C for 30 min. Cells reacted with anti-rabbit IgG (H+L) Alexa fluor 488-conjugates (1:500) in FACS buffer at 4 °C for 30 min. After washing three times with FACS buffer, surface CRT was detected by cytofluorometric analysis on a FACS Vantage. In some experiments, cells were fixed with 4% paraformaldehyde, counterstained with Hoechst (2µM; Sigma), followed by fluorescence microscopic assessment with a Leica IRE2 microscope equipped with a DC300F camera.

CRT and/or ERp57 = assay: Immunofluorescence staining of unfixed human tumour cell lines; format: cell-based; settings: variety of human tumour cell lines
CT26 tumours [1] = assay: Intratumoural treatment of established CT26 tumours, nu/nu mice; settings: single intratumoural injection
Method: (§1) All animals were maintained in specific pathogen-free conditions and all experiments followed the FELASA guidelines. […] Tumours were evaluated weekly, using a caliper. In a series of experiments, BALB/c (wild type or nu/nu) carrying palpable CT26 tumours (implanted 14 days before for wild type or 7 days before for nu/nu mice by injection of 10^6 tumour cells) received a single intratumoural injection of 100 µM PBS containing the same concentration of anti-cancer agents and PP1/GADD34 inhibitors as those used in vitro, as well as rCRT (15 µg).

CT26 tumours [2] = assay: Intratumoural treatment of established CT26 tumours, immunocompetent mice; settings: for therapeutic effect of single agent: single intratumoural injection, 14-day-old tumours
Method: as §1

MCA205, B16F10, J558 = assay: CRT exposure on murine tumour cell lines; format: cell-based
HeLa, A549, HCT116 = assay: CRT exposure on human tumour cell lines; format: cell-based
[3] = test system: human HCT116 colon cancer cell; assay: Calreticulin exposure, immunofluorescence staining and cytofluorometric analysis; format: cell-based; settings: 2 hours
[4] = test system: murine CT26 colon cancer cells; assay: as above; format: cell-based; settings: 2 hours
Method: CT26 cells were cultured for 24 hours in the presence of the indicated agents for 24hrs, as described in Materials and Methods, and then were stained with Annexin V-FITC and the vital dye DAPI. • Fig. 1B: Identification of immunogenic cell death inducers. CT26 cells cultured as in Fig.1A were injected into the left flank, followed by injection of life tumour cells in the right flank 8 days later. The percentage of tumour free mice was determined 120 days later as in Fig.1C. • Fig. 1C: Incidence of tumours after inoculation of dying cells. Day 1 was considered the day of inoculation of dying tumour cells, 1 week before challenge with […]. • Fig. 1S. Dissociation of CRT exposure and phosphatidyl serine exposure. • Fig. 1SA, Fig. 1SB: Kinetics of CRT exposure. […] Representative pictograms are shown in Fig.1SA and quantitative data are reported in Fig.1SB. • Fig. 1SC, Fig. 1SD: Kinetics of PS exposure and cell death. […] Note that the nuclei of untreated cells were visualized with Hoechst 33342 (blue), while those of doxorubicin-treated cells emit a red fluorescence (Fig.2D). […] The surface exposure of CRT was determined by immunoflurorescence cytometry while gating on viable (propidium iodine-negative) cells (inserts) and was correlated with the immunogenicity of cell death (as determined in Fig. 1). […]

[5] = dying CT26 cells treated with the agent injected into one flank, live tumour cells into the opposite flank 8 days later

CCOc1ccc(-c2nc3ccc(-c4nc5ccc(N6CCN(C)CC6)cc5[nH]4)cc3[nH]2)cc1 [Hoechst 33342]
immunogenic apoptosis / immunogenic cell death (protection against tumour growth) (CT26 tumour cells; [5]): failed to induce immunogenic apoptosis

COC(=O)C[C@H](NC(=O)[C@H](C)NC(=O)[C@@H](NC(=O)OCc1ccccc1)C(C)C)C(=O)CF [Z-VAD-fmk] (Cbz-Val-Ala-Asp(OMe)-CH2F)
immunogenicity of doxorubicin-elicited cell death (CT26 tumour cells; Z-VAD-fmk combined with doxorubicin): reduces the immunogenicity

C[C@H]1CCC/C=C/[C@@H]2C[C@H](O)C[C@H]2[C@H](O)/C=C/C(=O)O1 [brefeldin, brefeldin A]
immunogenic apoptosis / immunogenic cell death (protection against tumour growth) (CT26 tumour cells; [5]): failed to induce immunogenic apoptosis

COC[C@@H]([C@H](O)[C@H](O)C(=O)NCC[C@H](C)c1nc(/C=C/C[C@@H]2O[C@]3(C[C@@H](O)[C@@H]2C)O[C@H]([C@H](C[C@H](O)[C@H](C)[C@H](O)[C@H](C)/C=C(C)/C(C)=C/C=C/C(C)=C\C#N)OC)[C@H](OP(=O)(O)O)C3(C)C)co1)N(C)C [calyculin A]
immunogenic cell death (CT26 tumour cells): not sufficient to induce immunogenic cell death | immunogenic potential of cells succumbing to etoposide (CT26 tumour cells; mouse, in vivo): greatly enhanced | CRT exposure (CRT; agent alone): efficiently induced | CRT exposure (CRT; in combination with etoposide): greatly enhanced

CC[C@@]1(O)C(=O)OCc2c1cc1n(c2=O)Cc2cc3ccccc3nc2-1 [camptothecin]
immunogenic apoptosis / immunogenic cell death (protection against tumour growth) (CT26 tumour cells; [5]): failed to induce immunogenic apoptosis

COc1cccc2c1C(=O)c1c(O)c3c(c(O)c1C2=O)C[C@@](O)(C(C)=O)C[C@@H]3O[C@H]1C[C@H](N)[C@H](O)[C@H](C)O1 [daunorubicin]
exposure of CRT and/or ERp57 on the cell surface (CRT and/or ERp57): Very similar results

COc1cc([C@@H]2c3cc4c(cc3[C@@H](O[C@@H]3O[C@@H]5CO[C@@H](C)O[C@H]5[C@H](O)[C@H]3O)[C@H]3COC(=O)[C@H]23)OCO4)cc(OC)c1O [etoposide]
immunogenic apoptosis / immunogenic cell death (protection against tumour growth) (CT26 tumour cells; [5]): failed to induce immunogenic apoptosis | immunogenicity of etoposide-treated cells (CT26 tumour cells; sham-coated cells): poorly immunogenic | therapeutic effect of single agent (CT26 tumours [1]): no major therapeutic effect | therapeutic effect of single agent (CT26 tumours [2]): no major therapeutic effect

CC(=O)[C@]1(O)Cc2c(O)c3c(c(O)c2[C@@H](O[C@H]2C[C@H](N)[C@H](O)[C@H](C)O2)C1)C(=O)c1ccccc1C3=O [idarubicin]
immunogenic apoptosis / immunogenic cell death (protection against tumour growth) (CT26 tumour cells; [5]): elicited immunogenic cell death | exposure of CRT and/or ERp57 on the cell surface (CRT and/or ERp57): Very similar results

C/C1=C/C(=O)O[C@@H]2C[C@@H](CC[C@H](C)/C=C\C=C\CC1)O[C@@](O)([C@@H]1CSC(=O)N1)C2 [latrunculin A]
effect on CRT exposure induced by anthracyclins and PP1/GADD34 inhibitors (CRT; pre-incubation for 1 h with the inhibitor): abolished

CO[C@@]12[C@H](COC(N)=O)C3=C(C(=O)C(C)=C(N)C3=O)N1C[C@@H]1N[C@@H]12 [mitomycin C]
immunogenic apoptosis / immunogenic cell death (protection against tumour growth) (CT26 tumour cells; mouse, in vivo): failed to induce immunogenic apoptosis | therapeutic effect of single agent (CT26 tumours [1]): no major therapeutic effect | therapeutic effect of single agent (CT26 tumours [2]): no major therapeutic effect

O=C(/C=C/c1ccccc1)NC(NC(=S)Nc1cccc2cccnc12)C(Cl)(Cl)Cl (stereo not shown) [salubrinal]
immunogenic cell death (CT26 tumour cells): not sufficient to induce immunogenic cell death | immunogenic potential of cells succumbing to etoposide (CT26 tumour cells; in combination with etoposide (mitomycin C not shown), abrogated by knocking down CRT): greatly enhanced | CRT exposure (CRT; agent alone): efficiently induced | CRT exposure (CRT; in combination with etoposide): greatly enhanced | CRT exposure (MCA205, B16F10, J558): induced CRT exposure | CRT exposure (HeLa, A549, HCT116): induced CRT exposure | therapeutic effect of single agent (CT26 tumours [1]): no major therapeutic effect | tumour response (CT26 tumours [2]; combined with etoposide or mitomycin C, intratumoural): stable disease or complete tumour regression | therapeutic effect of single agent (CT26 tumours [2]): no major therapeutic effect

C/C=C(/C)C(=O)O[C@H]1C(C)=C2[C@H]([C@@H]1OC(=O)CCCCCCC)[C@@](C)(OC(C)=O)C[C@H](OC(=O)CCC)[C@@]1(O)[C@H]2OC(=O)[C@@]1(C)O [thapsigargin]
immunogenic apoptosis / immunogenic cell death (protection against tumour growth) (CT26 tumour cells; [5]): failed to induce immunogenic apoptosis

C2-ceramide [C2 ceramide]
immunogenic apoptosis / immunogenic cell death (protection against tumour growth) (CT26 tumour cells; [5]): failed to induce immunogenic apoptosis

VKKKKIKREIKI-Ikaravafsekv [mutant control peptide]
exposure of calreticulin [3]: did not induce calreticulin exposure | exposure of calreticulin [4]: did not induce calreticulin exposure

arsenic trioxide [arsenite]
immunogenic apoptosis / immunogenic cell death (protection against tumour growth) (CT26 tumour cells; mouse, in vivo): failed to induce immunogenic apoptosis

tunicamycin
immunogenic apoptosis / immunogenic cell death (protection against tumour growth) (CT26 tumour cells; [5]): failed to induce immunogenic apoptosis
